Source: US9732063B2, “Kinase inhibitors” (RESPIVERT LIMITED, priority 2012, dated 2017)

Assays:
PBMCs [1] = test: LPS-induced TNFα/IL-8 release in PBMC cells; type: cell-based; conditions: Homo sapiens, read-out: IC50 Values for Inhibition of Cytokine Release PBMCs IL-8
Description: Peripheral blood mononuclear cells (PBMCs) from healthy subjects are separated from whole blood using a density gradient (Lymphoprep, Axis-Shield Healthcare). The PBMCs are seeded in 96 well plates and treated with compounds at the desired concentration for 2 hours before addition of 1 ng/mL LPS (Escherichia Coli O111:B4 from Sigma Aldrich) for 24 hours under normal tissue culture conditions (37° C., 5% CO2). The supernatant is harvested for determination of IL-8 and TN Fa concentrations by sandwich ELISA (Duo-set, R&D systems) and read on the fluorescence microplate reader (Varioskan® Flash, ThermoFisher Scientific).

GSK3α = GSK3α (Homo sapiens (Human), UniProt P49840); test: GSK 3α enzyme inhibition (Z-LYTE FRET, Method 2); type: biochemical
Description: (§1) The enzyme inhibitory activities of compounds disclosed herein are determined by FRET using synthetic peptides labelled with both donor and acceptor fluorophores (Z-LYTE, Invitrogen Ltd., Paisley, UK).
The inhibitory activities of compounds of the invention against the GSK 3α enzyme isoform (Invitrogen), are evaluated by determining the level of activation/phosphorylation of the target peptide. The GSK3-α protein (500 ng/mL, 2.5 μL) is mixed with the test compound (2.5 μL at either 4 μg/mL, 0.4 μg/mL, 0.04 μg/mL, or 0.004 μg/mL) for 2 hr at RT. The FRET peptide (8 μM, 2.5 μL), which is a phosphorylation target for GSK3α, and ATP (40 μM, 2.5 μL) are then added to the enzyme/compound mixture and the resulting mixture incubated for 1 hr. Development reagent (protease, 5 μL) is added for 1 hr prior to detection in a fluorescence microplate reader (Varioskan® Flash, ThermoFisher Scientific).
(§2) In all cases, the site-specific protease cleaves non-phosphorylated peptide only and eliminates the FRET signal. Phosphorylation levels of each reaction are calculated using the ratio of coumarin emission (donor) over fluorescein emission (acceptor), for which high ratios indicate high phosphorylation and low ratios indicate low phosphorylation levels.

PBMCs [2] = test: IL-2 and IFN gamma release in CD3/CD28 stimulated PBMC cells; type: cell-based; conditions: Homo sapiens
Description: PBMCs from healthy subjects are separated from whole blood using a density gradient (Lymphoprep, Axis-Shield Healthcare). Cells are added to a 96 well plate pre-coated with a mixture of CD3/CD38 monoclonal antibodies (0.3 μg/mL eBioscience and 3 μg/mL BD Pharmingen respectively). Compound at the desired concentration is then added to the wells and the plate left for 3 days under normal tissue culture conditions. Supernatants are harvested and IL-2 and IFN gamma release determined by Sandwich ELISA (Duo-set, R&D System). The IC50 is determined from the dose response curve.

p38 MAPKα = p38 MAPKα (Homo sapiens (Human), UniProt Q16539); test: p38 MAPKα enzyme inhibition (Z-LYTE FRET, Method 2); type: biochemical
Description: as §1
The inhibitory activities of test compounds against the p38 MAPKα isoform (MAPK14: Invitrogen), are evaluated indirectly by determining the level of activation/phosphorylation of the down-stream molecule, MAPKAP-K2. The p38 MAPKα protein (80 ng/mL, 2.5 μL) is mixed with the test compound (2.5 μL of either 4 μg/mL, 0.4 μg/mL, 0.04 μg/mL or 0.004 μg/mL) for 2 hr at RT. […] The mixture is incubated for 1 hr at RT. Development reagent (protease, 5 μL) is added for 1 hr prior to detection in a fluorescence microplate reader (Varioskan® Flash, ThermoFisher Scientific).
as §2

Syk = Syk (Homo sapiens (Human), UniProt P43405); test: Syk enzyme inhibition (Z-LYTE FRET); type: biochemical
Description: as §1
(§3) The relevant enzyme (3000 ng/mL or 2000 ng/mL respectively, 2.5 μL) is incubated with the test compound (either 4 μg/mL, 0.4 μg/mL, 0.04 μg/mL, or 0.004 μg/mL, 2.5 μL each) for 2 hr at RT. The FRET peptides (8 μM, 2.5 μL), and appropriate ATP solutions (2.5 μL, 800 μM for c-Src, and 60 μM ATP for Syk) are then added to the enzymes/compound mixtures and incubated for 1 hr. Development reagent (protease, 5 μL) is added for 1 hr prior to detection in a fluorescence microplate reader (Varioskan® Flash, ThermoFisher Scientific).
as §2

c-Src = c-Src (Homo sapiens (Human), UniProt P12931); test: c-Src enzyme inhibition (Z-LYTE FRET); type: biochemical
Description: as §1, §3, §2

[3] = read-out: IC50 Values for Inhibition of Cytokine Release PBMCs IFNγ
[4] = read-out: IC50 Values for Inhibition of Cytokine Release PBMCs IL-2

Sequence of GSK3α (P49840 whole entry): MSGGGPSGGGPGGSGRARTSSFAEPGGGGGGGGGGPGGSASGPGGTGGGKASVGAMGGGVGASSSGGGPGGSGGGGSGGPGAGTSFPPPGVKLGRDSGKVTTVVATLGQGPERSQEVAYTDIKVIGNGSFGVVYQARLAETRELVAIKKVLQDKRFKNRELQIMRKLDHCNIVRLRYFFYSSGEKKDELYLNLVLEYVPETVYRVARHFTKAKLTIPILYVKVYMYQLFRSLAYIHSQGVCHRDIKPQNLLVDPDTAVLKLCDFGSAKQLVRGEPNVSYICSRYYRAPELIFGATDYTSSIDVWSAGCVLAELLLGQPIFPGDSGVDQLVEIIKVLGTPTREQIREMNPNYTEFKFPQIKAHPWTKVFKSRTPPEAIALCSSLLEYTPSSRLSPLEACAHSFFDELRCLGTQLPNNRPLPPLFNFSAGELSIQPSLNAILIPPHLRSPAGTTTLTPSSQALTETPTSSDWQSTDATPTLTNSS
Sequence of p38 MAPKα (Q16539 whole entry): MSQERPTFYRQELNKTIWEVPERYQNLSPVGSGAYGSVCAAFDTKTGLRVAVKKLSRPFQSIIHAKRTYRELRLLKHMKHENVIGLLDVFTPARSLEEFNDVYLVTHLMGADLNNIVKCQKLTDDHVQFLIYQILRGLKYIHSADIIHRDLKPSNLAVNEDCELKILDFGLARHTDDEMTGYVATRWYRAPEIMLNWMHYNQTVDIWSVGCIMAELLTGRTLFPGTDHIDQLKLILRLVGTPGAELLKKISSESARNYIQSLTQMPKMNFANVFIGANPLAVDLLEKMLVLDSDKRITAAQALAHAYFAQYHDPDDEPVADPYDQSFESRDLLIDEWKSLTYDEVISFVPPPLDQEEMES
Sequence of c-Src (P12931 whole entry, looked up): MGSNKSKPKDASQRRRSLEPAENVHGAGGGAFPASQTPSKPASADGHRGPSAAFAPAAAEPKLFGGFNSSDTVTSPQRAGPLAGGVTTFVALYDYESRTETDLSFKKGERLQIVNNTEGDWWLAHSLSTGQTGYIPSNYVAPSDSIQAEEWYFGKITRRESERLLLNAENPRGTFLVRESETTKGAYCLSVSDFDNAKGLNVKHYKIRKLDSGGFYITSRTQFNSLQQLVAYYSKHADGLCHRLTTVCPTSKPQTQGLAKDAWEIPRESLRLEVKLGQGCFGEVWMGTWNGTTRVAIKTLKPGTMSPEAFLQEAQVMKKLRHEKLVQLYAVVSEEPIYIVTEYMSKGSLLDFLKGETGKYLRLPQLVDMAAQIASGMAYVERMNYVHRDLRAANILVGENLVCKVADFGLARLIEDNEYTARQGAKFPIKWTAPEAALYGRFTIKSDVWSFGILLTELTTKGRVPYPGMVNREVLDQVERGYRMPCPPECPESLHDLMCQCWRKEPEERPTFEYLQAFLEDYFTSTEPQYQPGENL

Compound	IC50 (PBMCs [1]) [nM]	IC50 (GSK3α) [nM]	IC50 (PBMCs [2]; [3]) [nM]	IC50 (PBMCs [2]; [4]) [nM]	IC50 (p38 MAPKα) [nM]	IC50 (Syk) [nM]	IC50 (c-Src) [nM]
COCCOCCOCCOc1cc(Nc2nccc(Oc3ccc(NC(=O)Nc4cc(C(C)(C)C(F)(F)F)nn4-c4ccc(C)cc4)c4ccccc34)n2)cc(OC)c1 [Example 40, 1-(4-((2-((3-Methoxy-5-(2-(2-(2-methoxyethoxyl)ethoxy)ethoxy)phenyl)amino)pyrimidin-4-yl)oxy)naphthalen-1-yl)-3-(1-(p-tolyl)-3-(1,1,1-trifluoro-2-methylpropan-2-yl)-1H-pyrazol-5-yl)urea]	7.2	8170	1	175	–	–	–
COc1cc(Nc2nccc(Oc3ccc(NC(=O)Nc4cc(C(C)(C)C)nn4-c4ccc(C)cc4)c4ccccc34)n2)cc(S(=O)(=O)CCCN2CCOCC2)c1 [Example 43, 1-(3-(tert-Butyl)-1-(p-tolyl)-1H-pyrazol-5-yl)-3-(4-((2-((3-methoxy-5-((3-morpholinopropyl)-sulfonyl)phenyl)amino)pyrimidin-4-yl)oxy)naphthalen-1-yl)urea]	2.9	531	2.2	78.7	–	–	–
COc1cc(Nc2nccc(Oc3ccc(NC(=O)Nc4cc(C(C)(C)C)nn4-c4ccc(C)cc4)c4ccccc34)n2)cc(SCCN2CCOCC2)c1 [Example 41, 1-(3-(tert-Butyl)-1-(p-tolyl)-1H-pyrazol-5-yl)-3-(4-((2-((3-methoxy-5-((2-morpholinoethyl)-thio)phenyl)amino)pyrimidin-4-yl)oxy)naphthalen-1-yl)urea]	4.8	2820	2.5	80.3	224	–	–
COCCOCCOCCOc1cc(Nc2nccc(Oc3ccc(NC(=O)Nc4cc(C(C)(C)C)nn4-c4ccc(C)cc4)c4ccccc34)n2)cc(OC)c1Cl [Example 72, 1-(3-(tert-Butyl)-1-(p-tolyl)-1H-pyrazol-5-yl)-3-(4-((2-((4-chloro-3-methoxy-5-(2-(2-(2-methoxyethoxyl)ethoxy)ethoxy)phenyl)amino)pyrimidin-4-yl)oxy)naphthalen-1-yl)urea]	–	> 10000	3.3	35.1	377	75	–
Cc1ccc(-n2nc(C(C)C)cc2NC(=O)Nc2ccc(Oc3ccnc(Nc4cccc(OCCOCCOCCO)c4)n3)c3ccccc23)cc1 [Example 19, 1-(4-((2-((3-(2-(2-(2-Hydroxyethoxy)ethoxy)ethoxy)phenyl)amino)pyrimidin-4-yl)oxy)-naphthalen-1-yl)-3-(3-isopropyl-1-(p-tolyl)-1H-pyrazol-5-yl)urea]	1.2	1070	–	–	–	20	5
COc1cc(Nc2nccc(Oc3ccc(NC(=O)Nc4cc(C(C)(C)C)nn4-c4ccc(C)cc4)c(Cl)c3Cl)n2)cc(OCCCN2CCOCC2)c1 [Example 65, 1-(3-(tert-Butyl)-1-(p-tolyl)-1H-pyrazol-5-yl)-3-(2,3-dichloro-4-((2-((3-methoxy-5-(3-morpholinopropoxyl)phenyl)amino)pyrimidin-4-yl)oxy)phenyl)urea]	3.5	> 10000	2.8	37	–	–	–
COCCOCCOCCOc1cc(Nc2nccc(Oc3ccc(NC(=O)Nc4cc(C(F)(F)C(F)(F)F)nn4-c4ccc(C)cc4)c4ccccc34)n2)cc(OC)c1 [Example 39, 1-(4-((2-((3-Methoxy-5-(2-(2-(2-methoxyethoxyl)ethoxy)ethoxy)phenyl)amino)pyrimidin-4-yl)oxy)naphthalen-1-yl)-3-(3-(perfluoroethyl)-1-(p-tolyl)-1H-pyrazol-5-yl)urea]	5.5	9540	–	–	433	–	–
C#Cc1cc(Nc2nccc(Oc3ccc(NC(=O)Nc4cc(C(C)C)nn4-c4ccc(C)cc4)c4ccccc34)n2)cc(OC)c1 [Example 15, 1-(4-((2-((3-Ethynyl-5-methoxyphenyl)amino)pyrimidin-4-yl)oxy)naphthalen-1-yl)-3-(3-isopropyl-1-(p-tolyl)-1H-pyrazol-5-yl)urea]	6.1	–	–	–	–	> 1600	> 1600
C#Cc1cccc(Nc2nccc(Oc3ccc(NC(=O)Nc4cc(C(C)C)nn4-c4ccc(C)cc4)c4ccccc34)n2)c1 [Example 10, 1-(4-((2-((3-Ethynylphenyl)amino)pyrimidin-4-yl)oxy)naphthalen-1-yl)-3-(3-isopropyl-1-(p-tolyl)-1H-pyrazol-5-yl)urea]	7.9	–	–	–	–	807	137
COc1cc(Nc2nccc(Oc3ccc(NC(=O)Nc4cc(C(C)(C)C)nn4-c4ccc(C)cc4)c4ccccc34)n2)cc(SCCCO)c1 [Example 48, 1-(3-(tert-Butyl)-1-(p-tolyl)-1H-pyrazol-5-yl)-3-(4-((2-((3-((3-Hydroxypropyl)thio)-5-methoxyphenyl)amino)pyrimidin-4-yl)oxy)naphthalen-1-yl)urea]	3	2050	–	49.2	195	37	–
COCCOCCOCCOc1cc(Nc2nccc(Oc3ccc(NC(=O)Nc4cc(C(C)C)nn4-c4ccc(C)cc4)c(Cl)c3Cl)n2)cc(OC)c1 [Example 35, 1-(2,3-Dichloro-4-((2-((3-methoxy-5-(2-(2-(2-methoxyethoxy)ethoxy)ethoxy)phenyl)-amino)pyrimidin-4-yl)oxy)phenyl)-3-(3-isopropyl-1-(p-tolyl)-1H-pyrazol-5-yl)urea]	2.1	> 10000	–	9.8	487	–	15
COCCOCCOCCOc1cc(Cl)cc(Nc2nccc(Oc3ccc(NC(=O)Nc4cc(C(C)(C)C)nn4-c4ccc(C)cc4)c4ccccc34)n2)c1 [Example 64, 1-(3-(tert-Butyl)-1-(p-tolyl)-1H-pyrazol-5-yl)-3-(4-((2-((3-chloro-5-(2-(2-(2-methoxyethoxy)-ethoxy)ethoxy)phenyl)amino)pyrimidin-4-yl)oxy)naphthalen-1-yl)urea]	9.5	> 10000	–	–	–	–	–
COCCOCCOCCOc1cc(Nc2nccc(Oc3ccc(NC(=O)Nc4cc(C(C)(C)C)nn4-c4ccc(C)cc4)c4ccccc34)n2)cc(N(C)C)c1 [Example 66, 1-(3-(tert-Butyl)-1-(p-tolyl)-1H-pyrazol-5-yl)-3-(4-((2-((3-(dimethylamino)-5-(2-(2-(2-methoxyethoxy)ethoxy)ethoxy)phenyl)amino)pyrimidin-4-yl)oxy)naphthalen-1-yl)urea]	2.6	3390	–	–	–	–	–
COCCOCCOCCOc1cc(F)cc(Nc2nccc(Oc3ccc(NC(=O)Nc4cc(C(C)(C)C)nn4-c4ccc(C)cc4)c4ccccc34)n2)c1 [Example 50, 1-(3-(tert-Butyl)-1-(p-tolyl)-1H-pyrazol-5-yl)-3-(4-((2-((3-fluoro-5-(2-(2-(2-methoxyethoxy)-ethoxy)ethoxy)phenyl)amino)pyrimidin-4-yl)oxy)naphthalen-1-yl)urea]	8.6	3030	–	–	–	–	–
COc1cc(Nc2nccc(Oc3ccc(NC(=O)Nc4cc(C(C)C)nn4-c4ccc(C)cc4)c4ncccc34)n2)cc(OCCN2CCOCC2)c1 [Example 28, 1-(3-Isopropyl-1-(P-tolyl)-1H-pyrazol-5-yl)-3-(5-((2-((3-methoxy-5-(2-morpholinoethoxy)-phenyl)amino)pyrimidin-4-yl)oxy)quinolin-8-yl)urea]	24	> 10000	–	–	–	–	–
